Test results: ChEMBL document CHEMBL3885881, “DrugMatrix”

Species on record: Rattus norvegicus
Experiment: DrugMatrix - Regimen: Daily Repeat
Assay type: toxicity, organism-based, Sprague-Dawley
Parameters: regimen Daily Repeat, gender Male, age 6-8 weeks
Details: in vivo, po, route oral GAVAGE, vehicle 100 % WATER; for ABSOLUTE BASOPHIL / ABSOLUTE EOSINOPHIL / ABSOLUTE LYMPHOCYTE / ABSOLUTE MONOCYTE / ABSOLUTE SEGMENTED NEUTROPHIL / BASOPHIL / EOSINOPHIL / ERYTHROCYTE COUNT / HEMATOCRIT / HEMOGLOBIN / LEUKOCYTE COUNT / LYMPHOCYTE / MEAN CORPUSCULAR HEMOGLOBIN / MEAN CORPUSCULAR HEMOGLOBIN CONCENTRATION / MEAN CORPUSCULAR VOLUME / MONOCYTE / NEUTROPHIL / NUCLEATED RED BLOOD CELLS / PLATELET COUNT: tissue Blood; for ALANINE AMINOTRANSFERASE / ALBUMIN / ALKALINE PHOSPHATASE / ASPARTATE AMINOTRANSFERASE / BLOOD UREA NITROGEN / CARBON DIOXIDE / CHLORIDE / CHOLESTEROL / CREATINE PHOSPHOKINASE / CREATININE / GLUCOSE / LACTATE DEHYDROGENASE / LIPASE / PHOSPHORUS / POTASSIUM / SODIUM / TOTAL BILIRUBIN / TOTAL PROTEIN / URIC ACID: tissue Plasma
[1] = 48 mg/kg, 72 h, dose level High, time 3 day
[2] = 48 mg/kg, 120 h, dose level High, time 5 day
[3] = […], 72 h, dose 3.2 mg/Kg, dose level Low, time 3 day
[4] = […], 120 h, dose 3.2 mg/Kg, dose level Low, time 5 day

## O=C(c1ccccc1)c1ccc2n1CCC2C(=O)O (configuration not stated) [KETOROLAC]
[1]
  ABSOLUTE BASOPHIL: 0 CELLS/uL
  ABSOLUTE EOSINOPHIL: 209.67 CELLS/uL
  ABSOLUTE LYMPHOCYTE: 27063 CELLS/uL
  ABSOLUTE MONOCYTE: 1382.33 CELLS/uL
  ABSOLUTE SEGMENTED NEUTROPHIL: 3145 CELLS/uL
  BASOPHIL: 0%
  EOSINOPHIL: 0.67%
  ERYTHROCYTE COUNT: 3.97 x10E6/uL
  HEMATOCRIT: 23.77%
  HEMOGLOBIN: 9.13 G/DL
  LEUKOCYTE COUNT: 31.8 x10E3/uL
  LYMPHOCYTE: 85%
  MEAN CORPUSCULAR HEMOGLOBIN: 23.5 pg
  MEAN CORPUSCULAR HEMOGLOBIN CONCENTRATION: 38.6 G/DL
  MEAN CORPUSCULAR VOLUME: 60.83 fL
  MONOCYTE: 4.33%
  NEUTROPHIL: 10%
  NUCLEATED RED BLOOD CELLS: 0.33 /100WBC
  PLATELET COUNT: 1452.33 x10E3/uL
  ALANINE AMINOTRANSFERASE: 19.67 u/L
  ALBUMIN: 3.1 G/DL
  ALKALINE PHOSPHATASE: 170.33 u/L
  ASPARTATE AMINOTRANSFERASE: 55.33 u/L
  BLOOD UREA NITROGEN: 14 mg/dL
  CARBON DIOXIDE: 24 mmol/L
  CHLORIDE: 105.33 MEQ/L
  CHOLESTEROL: 64.67 mg/dL
  CREATINE PHOSPHOKINASE: 293 u/L
  CREATININE: 0.19 mg/dL
  GLUCOSE: 170 mg/dL
  LACTATE DEHYDROGENASE: 145.33 u/L
  LIPASE: 7.67 u/L
  PHOSPHORUS: 12.67 mg/dL
  POTASSIUM: 7.45 MEQ/L
  SODIUM: 144.47 MEQ/L
  TOTAL BILIRUBIN: 0.13 mg/dL
  TOTAL PROTEIN: 5.17 G/DL
  URIC ACID: 3 mg/dL
[2]
  ABSOLUTE BASOPHIL: 0 CELLS/uL
  ABSOLUTE EOSINOPHIL: 0 CELLS/uL
  ABSOLUTE LYMPHOCYTE: 14525.25 CELLS/uL
  ABSOLUTE MONOCYTE: 548.5 CELLS/uL
  ABSOLUTE SEGMENTED NEUTROPHIL: 4876.25 CELLS/uL
  BASOPHIL: 0%
  EOSINOPHIL: 0%
  ERYTHROCYTE COUNT: 4.52 x10E6/uL
  HEMATOCRIT: 27.15%
  HEMOGLOBIN: 10.4 G/DL
  LEUKOCYTE COUNT: 19.95 x10E3/uL
  LYMPHOCYTE: 76.25%
  MEAN CORPUSCULAR HEMOGLOBIN: 23.03 pg
  MEAN CORPUSCULAR HEMOGLOBIN CONCENTRATION: 38.32 G/DL
  MEAN CORPUSCULAR VOLUME: 60.12 fL
  MONOCYTE: 3.25%
  NEUTROPHIL: 20.5%
  NUCLEATED RED BLOOD CELLS: 0.5 /100WBC
  PLATELET COUNT: 2011.5 x10E3/uL
  ALANINE AMINOTRANSFERASE: 73.25 u/L
  ALBUMIN: 2.58 G/DL
  ALKALINE PHOSPHATASE: 411.75 u/L
  ASPARTATE AMINOTRANSFERASE: 294 u/L
  BLOOD UREA NITROGEN: 25.5 mg/dL
  CARBON DIOXIDE: 25.25 mmol/L
  CHLORIDE: 102 MEQ/L
  CHOLESTEROL: 70.5 mg/dL
  CREATINE PHOSPHOKINASE: 1478 u/L
  CREATININE: 0.18 mg/dL
  GLUCOSE: 115.25 mg/dL
  LACTATE DEHYDROGENASE: 533.75 u/L
  LIPASE: 13.5 u/L
  PHOSPHORUS: 13.42 mg/dL
  POTASSIUM: 7.39 MEQ/L
  SODIUM: 142.23 MEQ/L
  TOTAL BILIRUBIN: 0.18 mg/dL
  TOTAL PROTEIN: 5.4 G/DL
  URIC ACID: 2.45 mg/dL
[3]
  ABSOLUTE BASOPHIL: 0 CELLS/uL
  ABSOLUTE EOSINOPHIL: 59.33 CELLS/uL
  ABSOLUTE LYMPHOCYTE: 7885.33 CELLS/uL
  ABSOLUTE MONOCYTE: 273 CELLS/uL
  ABSOLUTE SEGMENTED NEUTROPHIL: 682.33 CELLS/uL
  BASOPHIL: 0%
  EOSINOPHIL: 0.67%
  ERYTHROCYTE COUNT: 5.54 x10E6/uL
  HEMATOCRIT: 36.1%
  HEMOGLOBIN: 13.73 G/DL
  LEUKOCYTE COUNT: 8.9 x10E3/uL
  LYMPHOCYTE: 88.67%
  MEAN CORPUSCULAR HEMOGLOBIN: 24.83 pg
  MEAN CORPUSCULAR HEMOGLOBIN CONCENTRATION: 38.07 G/DL
  MEAN CORPUSCULAR VOLUME: 65.27 fL
  MONOCYTE: 3%
  NEUTROPHIL: 7.67%
  NUCLEATED RED BLOOD CELLS: 0 /100WBC
  PLATELET COUNT: 1257 x10E3/uL
  ALANINE AMINOTRANSFERASE: 47.67 u/L
  ALBUMIN: 4.6 G/DL
  ALKALINE PHOSPHATASE: 439.67 u/L
  ASPARTATE AMINOTRANSFERASE: 96 u/L
  BLOOD UREA NITROGEN: 11.33 mg/dL
  CARBON DIOXIDE: 32.33 mmol/L
  CHLORIDE: 102.5 MEQ/L
  CHOLESTEROL: 64.67 mg/dL
  CREATINE PHOSPHOKINASE: 218 u/L
  CREATININE: 0.17 mg/dL
  GLUCOSE: 144.33 mg/dL
  LACTATE DEHYDROGENASE: 103.33 u/L
  LIPASE: 9.33 u/L
  PHOSPHORUS: 11.4 mg/dL
  POTASSIUM: 6 MEQ/L
  SODIUM: 148.9 MEQ/L
  TOTAL BILIRUBIN: 0.0667 mg/dL
  TOTAL PROTEIN: 6.63 G/DL
  URIC ACID: 0.43 mg/dL
[4]
  ABSOLUTE BASOPHIL: 0 CELLS/uL
  ABSOLUTE EOSINOPHIL: 0 CELLS/uL
  ABSOLUTE LYMPHOCYTE: 9946 CELLS/uL
  ABSOLUTE MONOCYTE: 214 CELLS/uL
  ABSOLUTE SEGMENTED NEUTROPHIL: 540 CELLS/uL
  BASOPHIL: 0%
  EOSINOPHIL: 0%
  ERYTHROCYTE COUNT: 6.18 x10E6/uL
  HEMATOCRIT: 38.5%
  HEMOGLOBIN: 14.07 G/DL
  LEUKOCYTE COUNT: 10.7 x10E3/uL
  LYMPHOCYTE: 93%
  MEAN CORPUSCULAR HEMOGLOBIN: 22.77 pg
  MEAN CORPUSCULAR HEMOGLOBIN CONCENTRATION: 36.63 G/DL
  MEAN CORPUSCULAR VOLUME: 62.23 fL
  MONOCYTE: 2%
  NEUTROPHIL: 5%
  NUCLEATED RED BLOOD CELLS: 0 /100WBC
  PLATELET COUNT: 1155 x10E3/uL
  ALANINE AMINOTRANSFERASE: 40 u/L
  ALBUMIN: 4.43 G/DL
  ALKALINE PHOSPHATASE: 422.33 u/L
  ASPARTATE AMINOTRANSFERASE: 70.67 u/L
  BLOOD UREA NITROGEN: 14.67 mg/dL
  CARBON DIOXIDE: 33.67 mmol/L
  CHLORIDE: 102 MEQ/L
  CHOLESTEROL: 81 mg/dL
  CREATINE PHOSPHOKINASE: 512.33 u/L
  CREATININE: 0.16 mg/dL
  GLUCOSE: 169.33 mg/dL
  LACTATE DEHYDROGENASE: 125 u/L
  LIPASE: 9 u/L
  PHOSPHORUS: 13.57 mg/dL
  POTASSIUM: 6.98 MEQ/L
  SODIUM: 147.2 MEQ/L
  TOTAL BILIRUBIN: 0.2 mg/dL
  TOTAL PROTEIN: 6.37 G/DL
  URIC ACID: 1.83 mg/dL
